Measurements from the supplement of paper PMC10307832.

Tests used:
Assay in all cases: relative viability (nuclei count vs DMSO), 5 days (fraction); higher = more cells survive
VX-702 + Navitoclax = compound: NC(=O)c1ccc(N(C(N)=O)c2c(F)cccc2F)nc1-c1ccc(F)cc1F [VX-702] + CC1(C)CCC(c2ccc(Cl)cc2)=C(CN2CCN(c3ccc(C(=O)NS(=O)(=O)c4ccc(N[C@H](CCN5CCOCC5)CSc5ccccc5)c(S(=O)(=O)C(F)(F)F)c4)cc3)CC2)C1 [Navitoclax] (partner 0.5 µM)
How it was run: (§1)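 Cells from lung cancer lines were seeded into 1536-well plates and, one day later, dosed by pin tool. Treatments were either a single drug or a fixed dose of an anchor drug with five library-drug doses (not always all listed) in √10 steps. After 5 days, nuclei were stained in a one-step fixation (final 0.05% Triton X-100, 1% formaldehyde, 1 ug/ml Hoechst) and counted on 4× images, and relative viability is the treated-to-vehicle nuclei ratio, as the median of duplicate plates.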

VX-702 + Linsitinib = compound: NC(=O)c1ccc(N(C(N)=O)c2c(F)cccc2F)nc1-c1ccc(F)cc1F [VX-702] + C[C@]1(O)C[C@@H](c2nc(-c3ccc4ccc(-c5ccccc5)nc4c3)c3c(N)nccn32)C1 [Linsitinib] (partner 1 µM)
How it was run: as §1

Dabrafenib + Tozasertib = compound: CC(C)(C)c1nc(-c2cccc(NS(=O)(=O)c3c(F)cccc3F)c2F)c(-c2ccnc(N)n2)s1 [Dabrafenib] + Cc1cc(Nc2cc(N3CCN(C)CC3)nc(Sc3ccc(NC(=O)C4CC4)cc3)n2)n[nH]1 [Tozasertib] (partner 0.1 µM)
How it was run: as §1

VX-702 + Palbociclib = compound: NC(=O)c1ccc(N(C(N)=O)c2c(F)cccc2F)nc1-c1ccc(F)cc1F [VX-702] + CC(=O)c1c(C)c2cnc(Nc3ccc(N4CCNCC4)cn3)nc2n(C2CCCC2)c1=O [Palbociclib] (partner 0.5 µM)
How it was run: as §1

Cell Line | relative viability (VX-702 + Navitoclax; first compound 0.02 µM) | relative viability (VX-702 + Navitoclax; first compound 0.2 µM) | relative viability (VX-702 + Navitoclax; first compound 0.6325 µM) | relative viability (VX-702 + Navitoclax; first compound 2 µM) | relative viability (VX-702 + Linsitinib; first compound 0.02 µM) | relative viability (VX-702 + Linsitinib; first compound 0.2 µM) | relative viability (VX-702 + Linsitinib; first compound 0.6325 µM) | relative viability (VX-702 + Linsitinib; first compound 2 µM) | relative viability (Dabrafenib + Tozasertib; first compound 0.009487 µM) | relative viability (Dabrafenib + Tozasertib; first compound 0.03 µM) | relative viability (Dabrafenib + Tozasertib; first compound 0.09487 µM) | relative viability (Dabrafenib + Tozasertib; first compound 0.3 µM) | relative viability (VX-702 + Palbociclib; first compound 0.02 µM) | relative viability (VX-702 + Palbociclib; first compound 0.2 µM) | relative viability (VX-702 + Palbociclib; first compound 0.6325 µM) | relative viability (VX-702 + Palbociclib; first compound 2 µM) | relative viability (Dabrafenib + Tozasertib; first compound 0.003 µM)
IA-LM | 0.928 | 0.853 | 0.658 | 0.905 | 0.585 | 0.723 | 0.606 | 0.557 | – | – | – | – | – | – | – | – | –
NCI-H522 | – | – | – | – | – | – | – | – | 0.471 | 0.59 | 0.58 | 0.621 | 1.12 | 0.988 | 0.83 | 1.08 | –
NCI-H661 | – | – | – | – | 0.523 | 0.587 | 0.5 | 0.826 | 0.364 | 0.372 | 0.38 | 0.352 | 0.413 | 0.409 | 0.409 | 0.408 | 0.344
NCI-H1650 | 1.1 | 1.16 | 1.43 | 1.31 | – | – | – | – | 0.563 | 0.408 | 0.419 | 0.384 | 0.325 | 0.35 | 0.445 | 0.297 | 0.524
ABC-1 | – | – | – | – | 0.661 | – | 0.925 | 1.16 | 0.244 | 0.206 | 0.132 | 0.174 | 0.569 | 0.633 | 0.826 | 0.8 | 0.215
ChaGo-K-1 | 0.991 | 0.403 | 0.898 | 1.4 | – | – | – | – | 0.223 | 0.225 | 0.194 | 0.239 | 0.942 | 0.881 | 0.893 | 0.946 | 0.219
